{"source": "patent US20240190910A1", "about": "“HEMI-CITRATE SALTS OF GABA-A POSITIVE […] AND CRYSTALLINE FORM THEREOF” (priority 2021, published 2024)", "assay_type_in_all_cases": "physicochemical", "key": {"[1]": {"test": "Compaction characterization by Heckel analysis (yield pressure, strain rate sensitivity, crushing strength)", "conditions": "for Yield pressure Fast (300 mm/s) / Yield pressure Slow (0.1 mm/s): summary of runs (± spread); for Strain rate sensitivity: yield pressure at 300 mm/s compared to 0.1 mm/s", "method": "The aim of the Heckel test is to compress the material under controlled conditions to derive the yield pressure of the bulk material. A known weight of material is compressed within a 10 mm diameter die with flat faced punches moving at a set speed. The force on the punch is accurately measured at frequent intervals whilst the displacement of the punches is used to calculate the volume of the powder. The yield pressure is calculated at slow and fast punch speeds to assess the time-dependent component to deformation of the material.\nA known weight of pure drug is compacted to theoretical zero porosity using 10 mm diameter flat faced punches. The Compaction Simulator was used under the following conditions:\nDuring compression the location of the punch tips are accurately determined, and the force measured by load cells producing a record of the primary compression parameters. Temperature and humidity were monitored at intervals during the test.\nThe data were analyzed by the Compaction Analysis software program to generate values for yield pressure (Py) using the Heckel equation:\nwhere • D=the relative density of the compact; • P=Pressure applied; and • K=Gradient of the line in the linear region; [Reference: R. W. Heckel. Trans. Metall. Soc. AIME 221 (1961)1001-1008].\nFor some materials, the deformation characteristics change with rate of applied force. This can be estimated by calculating the Strain Rate Sensitivity. The yield pressure at high speed compression is compared to that at slow speed using the following equation: […]"}, "[2]": {"test": "True density by helium pycnometry", "method": "The equipment used was a Micromeritics AccuPyc II 1340, and the test parameters are set forth below. Testing was performed in duplicate (assuming target <2% variability achieved).\nThe true density of the material was determined by Helium Pycnometry.\nThe equipment used in this study was a Micromeritics AccuPyc II 1340, and the test parameters are the same as described in Example 10. The testing was performed in duplicate (assuming target <2% variability achieved)."}, "[3]": {"test": "Dynamic vapor sorption (DVS) hygroscopicity", "method": "DVS was measured via a SMS (Surface Measurement System) DVS Intrinsic. Parameters for DVS data collection were as follows:\nA second endotherm (having an onset at 121.5° C.) associated with melting of the dehydrated phase (ΔH: 15.20 J/g) was followed by a rapid decomposition as temperature continued to increase (FIG. 3). Because of the low onset of dehydration, the DVS was measured at both room temperature and at 40° C. to predict the stability of the crystalline phase at 40° C. […] A 1.5% weight loss was observed between 95% and 20% RH, and a 2.9% weight loss was observed between 20% and 0% RH, for a total loss of […] across the entire cycle. […] After measuring the hygroscopicity by DVS, an XRPD pattern was collected for comparison to the original material and found to correspond well to the pattern of the room temperature sample post-DVS temperature cycle (FIG. 6)."}, "[4]": {"test": "Gelation experiments in aqueous media", "conditions": "for concentration at which rapidly gelled: 0.1 N HCl media; for gelation in water or pH 7.4 buffer: 0.5-10 mg/mL", "method": "To confirm these findings, controlled experiments were conducted where the free base, mono-citrate, and hemi-citrate salts of Compound 1 were dissolved in aqueous media at concentrations between 0.5 mg/mL and 10 mg/mL. The dissolution experiments were performed in either 0.1 N HCl, water, or pH 7.4 buffer as aqueous media."}, "[5]": {"test": "Tablet chemical stability: C17 epimer generation on storage at 40° C./75% RH", "conditions": "tablet dosage form, sealed bottle, 1 or 2 months, compared with mono-citrate salt", "method": "FIG. 12 is a graph comparing the amount of the C17 epimer, a degradation product of Compound 1, over time for a tablet formulation containing Compound 1 hemi-citrate salt (Form I; left column in both “1 month” and “2 months”) or Compound 1 mono-citrate salt (Form A; right column in both “1 month” and “2 months”) in sealed bottles stored at 40° C./75% RH)."}, "[6]": {"test": "Tablet dissolution: percent release of Compound 1 from acidified tablet formulation", "method": "FIG. 13 is a graph showing percent release of Compound 1 over time for an acidified tablet formulation containing Compound 1 hemi-citrate salt Form I. Tablets were used initially or maintained at 40° C./75% RH for 2 weeks, 1 month, or 2 months.\nFIG. 14 is a graph showing percent release of Compound 1 over time for an acidified tablet formulation containing Compound 1 mono-citrate salt (Form A). Tablets were used initially or stored at 40° C./75% RH for 2 weeks, 1 month, or 2 months."}, "[7]": {"conditions": "fast speed 300 mm/s, individual runs, 21.7° C./38.9% RH"}, "[8]": {"conditions": "slow speed 0.1 mm/s, individual runs, 21.6° C./37.1% RH"}}, "note": "Where “and” joins values, the source holds several entries; their conditions need not be identical. Equal values may be shown once. Where a name gives a salt, the structure may show the parent alone. Read-outs that look alike come from different tables or passages of the source.", "data": [{"smiles": "COC[C@@]1(O)CC[C@@]2(C)[C@@H](CC[C@@H]3[C@@H]2CC[C@]2(C)[C@@H](C(=O)Cn4ccnc4)CC[C@@H]32)C1", "note": "[Compound 1 hemi-citrate salt Form I]", "values": [{"measurement": "Compact observations", "setting": "[1]", "value": "Ok and Chipped and Capped"}, {"measurement": "Ejection Force", "setting": "[1]", "value": "0.416 kN and 0.445 kN and 0.479 kN and 0.747 kN and 0.736 kN and 0.745 kN"}, {"measurement": "Peak Force of Upper punch", "setting": "[1]", "value": "20.607 kN and 21.683 kN and 19.936 kN and 14.028 kN and 13.909 kN and 14.571 kN"}, {"measurement": "Yield Pressure", "setting": "[1]", "value": "67.480 MPa and 73.595 MPa and 67.397 MPa and 83.127 MPa and 80.626 MPa and 89.401 MPa"}, {"measurement": "Yield pressure Fast (300 mm/s)", "setting": "[1]; fast speed 300 mm/s", "value": "84.38 MPa (±4.52)"}, {"measurement": "Yield pressure Slow (0.1 mm/s)", "setting": "[1]; slow speed 0.1 mm/s", "value": "69.49 MPa (±3.55)"}, {"measurement": "Strain rate sensitivity", "setting": "[1]", "value": 21.4, "unit": "%"}, {"measurement": "true density mean", "setting": "[2]", "value": 1.2621, "unit": "g/mL"}, {"measurement": "total loss (DVS)", "setting": "[3]; 40° C.", "value": 5.4, "unit": "%"}, {"measurement": "water absorption from 20% to 80% RH (DVS)", "setting": "[3]; 40° C.", "value": 1.8, "unit": "%"}, {"measurement": "water lost between 95% and 20% RH (DVS)", "setting": "[3]; 40° C.", "value": 2.2, "unit": "%"}, {"measurement": "water lost from 20% to 0% RH (DVS)", "setting": "[3]; 40° C.", "value": 3.2, "unit": "%"}, {"measurement": "hygroscopicity", "setting": "[3]; DVS at room temperature and 40° C.", "value": "slightly hygroscopic"}, {"measurement": "total loss across the entire cycle (DVS)", "setting": "[3]; room temperature", "value": 4.3, "unit": "%"}, {"measurement": "water uptake between 20% and 80% RH (DVS)", "setting": "[3]; room temperature", "value": 1.2, "unit": "%"}, {"measurement": "weight loss between 20% and 0% RH (DVS)", "setting": "[3]; room temperature", "value": 2.9, "unit": "%"}, {"measurement": "weight loss between 95% and 20% RH (DVS)", "setting": "[3]; room temperature", "value": 1.5, "unit": "%"}]}, {"smiles": "COC[C@@]1(O)CC[C@@]2(C)[C@@H](CC[C@@H]3[C@@H]2CC[C@]2(C)[C@@H](C(=O)Cn4ccnc4)CC[C@@H]32)C1", "note": "[Compound 1 hemi-citrate salt]", "values": [{"measurement": "gelation in aqueous media", "setting": "[4]; 0.1 N HCl, water, or pH 7.4 buffer, concentrations up to 10 mg/mL", "value": "did not gel"}, {"measurement": "degradation product (C17-epimer) generated", "setting": "[5]", "value": "less degradation product"}, {"measurement": "susceptibility to dissolution slow-down of the tablet", "setting": "[6]; compared with Compound 1 mono-citrate salt", "value": "less susceptible"}, {"measurement": "release of Compound 1 from an acidified formulation over time", "setting": "[6]; initial and tablet stored in open dish at 40° C./75% RH for 2 weeks, 1 month, 2 months, compared with mono-citrate salt", "value": "greater"}]}, {"smiles": "COC[C@@]1(O)CC[C@@]2(C)[C@@H](CC[C@@H]3[C@@H]2CC[C@]2(C)[C@@H](C(=O)Cn4ccnc4)CC[C@@H]32)C1.O=C(O)CC(O)(CC(=O)O)C(=O)O", "note": "[Compound 1 mono-citrate salt Form A]", "values": [{"measurement": "Compact observations", "setting": "[1]; [7]", "value": "Laminated"}, {"measurement": "Compact strength", "setting": "[1]; [7]", "value": "9.75 Kiloponds and 12.38 Kiloponds and 5.09 Kiloponds"}, {"measurement": "Ejection Force", "setting": "[1]; [7]", "value": "0.740 kN and 0.649 kN and 0.719 kN"}, {"measurement": "Peak Force of Upper punch", "setting": "[1]; [7]", "value": "14.137 kN and 14.545 kN and 14.488 kN"}, {"measurement": "Yield Pressure", "setting": "[1]; [7]", "value": "105.169 MPa and 111.204 MPa and 110.483 MPa"}, {"measurement": "Compact observations", "setting": "[1]; [8]", "value": "Ok"}, {"measurement": "Compact strength", "setting": "[1]; [8]", "value": "15.99 Kiloponds and 17.94 Kiloponds and 15.97 Kiloponds and 16.04 Kiloponds"}, {"measurement": "Ejection Force", "setting": "[1]; [8]", "value": "0.603 kN and 0.426 kN and 0.518 kN and 0.462 kN"}, {"measurement": "Peak Force of Upper punch", "setting": "[1]; [8]", "value": "18.227 kN and 22.470 kN and 20.499 kN and 22.020 kN"}, {"measurement": "Yield Pressure", "setting": "[1]; [8]", "value": "70.114 MPa and 92.323 MPa and 85.677 MPa and 90.406 MPa"}, {"measurement": "Yield pressure Fast (300 mm/s)", "setting": "[1]; fast speed 300 mm/s", "value": "108.95 MPa (±3.30)"}, {"measurement": "Yield pressure Slow (0.1 mm/s)", "setting": "[1]; slow speed 0.1 mm/s", "value": "84.63 MPa (±10.07)"}, {"measurement": "Strain rate sensitivity", "setting": "[1]", "value": 28.7, "unit": "%"}, {"measurement": "true density mean", "setting": "[2]", "value": 1.2666, "unit": "g/mL"}]}, {"smiles": "COC[C@@]1(O)CC[C@@]2(C)[C@@H](CC[C@@H]3[C@@H]2CC[C@]2(C)[C@@H](C(=O)Cn4ccnc4)CC[C@@H]32)C1.O=C(O)CC(O)(CC(=O)O)C(=O)O", "note": "[Compound 1 mono-citrate salt]", "values": [{"measurement": "concentration at which rapidly gelled", "setting": "[4]", "value": 5000, "unit": "µg/mL"}, {"measurement": "gelation in water or pH 7.4 buffer", "setting": "[4]", "value": "did not gel"}]}, {"smiles": "COC[C@@]1(O)CC[C@@]2(C)[C@@H](CC[C@@H]3[C@@H]2CC[C@]2(C)[C@@H](C(=O)Cn4ccnc4)CC[C@@H]32)C1", "note": "[Compound 1, 3α-hydroxy-3β-methoxymethyl-21-(1′-imidazolyl)-5α-pregnan-20-one]", "values": [{"measurement": "concentration at which rapidly gelled", "setting": "[4]", "value": 1000, "unit": "µg/mL"}, {"measurement": "gelation in water or pH 7.4 buffer", "setting": "[4]", "value": "did not gel"}]}]}
